{"source": "BindingDB's records for PubMed 2547939", "about": "(Abbott Laboratories, 1989)", "key": {"[1]": {"target": "T1, Muscarinic acetylcholine receptor M2 (Rattus norvegicus, UniProt P10980)", "T1 sequence (P10980 whole entry)": "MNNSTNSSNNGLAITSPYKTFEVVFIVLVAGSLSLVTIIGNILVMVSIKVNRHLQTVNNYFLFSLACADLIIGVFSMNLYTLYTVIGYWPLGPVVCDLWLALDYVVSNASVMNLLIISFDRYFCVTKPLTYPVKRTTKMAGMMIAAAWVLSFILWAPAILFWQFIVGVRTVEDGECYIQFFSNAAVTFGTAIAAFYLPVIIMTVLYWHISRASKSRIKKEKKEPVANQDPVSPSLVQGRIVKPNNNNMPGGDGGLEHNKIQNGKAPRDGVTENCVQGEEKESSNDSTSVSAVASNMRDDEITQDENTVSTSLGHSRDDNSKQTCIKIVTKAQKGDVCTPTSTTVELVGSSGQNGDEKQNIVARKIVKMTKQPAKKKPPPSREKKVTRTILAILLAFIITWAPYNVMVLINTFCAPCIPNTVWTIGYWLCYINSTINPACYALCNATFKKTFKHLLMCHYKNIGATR"}, "[2]": {"target": "T2, Muscarinic acetylcholine receptor M1 (Rattus norvegicus, UniProt P08482)", "T2 sequence (P08482 whole entry)": "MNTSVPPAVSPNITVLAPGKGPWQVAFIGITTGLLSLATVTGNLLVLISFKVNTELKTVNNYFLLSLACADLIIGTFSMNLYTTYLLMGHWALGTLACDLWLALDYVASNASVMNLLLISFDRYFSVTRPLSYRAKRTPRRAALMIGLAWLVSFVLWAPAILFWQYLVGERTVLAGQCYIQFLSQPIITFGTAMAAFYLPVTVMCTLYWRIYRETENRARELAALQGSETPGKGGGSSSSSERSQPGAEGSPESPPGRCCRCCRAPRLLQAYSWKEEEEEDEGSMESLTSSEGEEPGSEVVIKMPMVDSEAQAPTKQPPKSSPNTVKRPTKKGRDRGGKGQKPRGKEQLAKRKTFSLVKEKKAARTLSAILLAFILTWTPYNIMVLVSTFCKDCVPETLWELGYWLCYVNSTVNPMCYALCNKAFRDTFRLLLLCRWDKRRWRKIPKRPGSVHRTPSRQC"}}, "data": [{"smiles": "CCN(CC)CC1CCCCN1CC(=O)N1c2ccccc2C(=O)Nc2cccnc21", "note": "(stereo not drawn) [(AF-DX 116) 11-[2-(2-Diethylaminomethyl-piperidin-1-yl)-acetyl]-5,11-dihydro-benzo[e]pyrido[3,2-b][1,4]diazepin-6-one]", "values": [{"measurement": "Ki", "setting": "[1]", "result": 33.9, "unit": "nM"}, {"measurement": "Ki", "setting": "[2]", "result": 180, "unit": "nM"}]}, {"smiles": "O[Si](CCCN1CCCCC1)(c1ccccc1)C1CCCCC1", "note": "(stereo not drawn) [HHSiD]", "values": [{"measurement": "Ki", "setting": "[2]", "result": 14.8, "unit": "nM"}]}]}
